Legend:
[1] = test system: mouse lung carcinoma cell line (3LL cells); experiment: Cell invasion inhibition assay (Matrigel invasion chamber); assay type: cell-based; details: in words
Description: In this Pharmacological Test, the inhibitory effect of each test compound on cell invasion response was evaluated using a mouse lung carcinoma cell line (3LL cells), a mouse pancreatic cancer cell line (PANC02 cells), and a human breast cancer cell line (MDA-MB-157 cells). Of these, the mouse lung carcinoma cell line (3LL) is a cancer cell line with mutant Ras (K-Ras (G12C)), and the human breast cancer cell line (MDA-MB-157) is a cancer cell line with mutant Rac (Rac1 (P29S)). The experiments were performed in BD BioCoat Matrigel invasion chambers (BD Biosciences).
Specifically, an upper chamber with a Matrigel-coated membrane insert (8 μm pores) at the bottom was equilibrated with DMEM (serum-free medium) for 120 minutes. Thereafter, 300 μL of a suspension of a cancer cell line in DMEM (serum-free) was placed in the upper chamber while 500 μL of DMEM (with 10 mass % FCS) was placed in the lower chamber. Each test compound dissolved in DMSO at a predetermined concentration was added to both the culture media in the upper and lower chambers. As a control, DMSO alone was added to both the culture media in the upper and lower chambers. In all of the experiments, the final DMSO concentration in the culture media was adjusted to 0.2 mass %.
The resulting products were cultured under 5% CO2 at 37° C. for 22 hours (3LL and PANC02 cells) or 48 hours (MDA-MB-157 cells). Then, the upper chamber was removed, and the culture medium was removed. Thereafter, non-invading cells remaining in the upper chamber were removed using a cotton swab, and the cells remaining outside the bottom of the upper chamber (cells that had invaded into the Matrigel, and passed through the membrane insert) were stained with Diff-Quick (Sysmex). After staining, the membrane inserts with Matrigel were cut out using a scalpel to prepare slides, and the number of invading cells was counted under an optical microscope.
The results were evaluated based on percent cell invasion (%: Invasion) and percent inhibition (%: Inhibition). The percent cell invasion was obtained by converting the number of invading cells in the presence of each test compound into a percentage, taking the number of invading cells in the control test, in which DMSO was added alone, as 100%; and the percent inhibition was obtained by deducting the percent cell invasion from 100.

DOCK1 (DHR-2 domain) = target: T1, DOCK1 (DHR-2 domain) (Homo sapiens, UniProt Q14185); experiment: In vitro GEF assay: Rac activation by DOCK1 DHR-2 domain; assay type: biochemical, mice and humans; details: in words; for selective inhibitory activity against DOCK1 versus DOCK2: GEF assay DOCK1 vs DOCK2 DHR-2 domain
T1 construct: polypeptide fragments corresponding to the DHR-2 domain of DOCK1 or DOCK2 from mice and humans; Histidine-SUMO (N); made in house; host or cells: E. coli Arctic express (DE3)
T1 sequence (Q14185 1207-1617 limits assumed): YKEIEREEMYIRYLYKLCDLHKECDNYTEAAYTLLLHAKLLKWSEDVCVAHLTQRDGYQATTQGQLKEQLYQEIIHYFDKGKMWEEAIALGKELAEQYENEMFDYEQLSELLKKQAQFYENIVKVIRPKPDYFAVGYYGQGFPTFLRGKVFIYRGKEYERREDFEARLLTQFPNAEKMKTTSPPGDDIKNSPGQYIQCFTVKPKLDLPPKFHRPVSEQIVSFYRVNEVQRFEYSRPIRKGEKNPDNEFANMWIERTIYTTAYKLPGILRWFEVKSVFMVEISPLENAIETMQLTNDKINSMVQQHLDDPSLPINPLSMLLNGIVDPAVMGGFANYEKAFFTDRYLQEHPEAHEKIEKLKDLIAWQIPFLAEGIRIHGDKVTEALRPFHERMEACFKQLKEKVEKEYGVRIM
Description: DOCK1 and DOCK2, i.e., DOCK-A subfamily members, both activate Rac by catalyzing the GTP-GDP exchange reaction for Rac via their DHR-2 domains. Therefore, in this Pharmacological Test, the inhibitory effect of the compounds of the present invention on Rac activation by DOCK1 or DOCK2 was assessed in an in vitro GEF assay by using polypeptide fragments corresponding to the DHR-2 domain of DOCK1 or DOCK2 from mice and humans. The in vitro GEF assay was performed using a labeled GTP (Bodipy-FL-GTP, Invitrogen), which has a property of increasing the fluorescence intensity when bound to Rac.
The polypeptide fragments corresponding to the DHR-2 domain of DOCK1 or DOCK2 were prepared by expression in E. coli Arctic express (DE3) cells as N-terminal. Histidine-SUMO tag-fused recombinant proteins, followed by purification by affinity column chromatography on nickel-NTA columns.
Rac was prepared by expression in E. coli BL21 (DE3) cells as an N-terminal GST tag-fused recombinant protein, followed by purification by affinity column chromatography on glutathione-Sepharose columns.
Each of the polypeptide fragments corresponding to the DHR-2 domain of DOCK1 or DOCK2, and a predetermined concentration of each test compound (the compounds of the present invention: 33 types of compounds; and comparative compound: TBOPP) dissolved in DMSO were incubated in a reaction solution A (pH 7.0), which contained 20 mM of MES-NaOH, 150 mM of NaCl, 10 mM of MgCl2, and 20 μM of GDP for 20 minutes at room temperature while being shielded from light to thus prepare GEF pretreated products. The final concentration of DMSO was adjusted to 1 mass % in all of the test samples. For a control test, a GEF pretreated product (control) was prepared by incubation in the same manner using DMSO with no test compounds, instead of the DMSO used above in which each test compound was dissolved.
Separately, Rac was added to the reaction solution A (pH 7.0) to a concentration of 15 μM, and was allowed to stand on for 30 min to form a GDP-Rac complex. Bodipy-FL-GTP was added to a concentration of 3.6 μM to 100 μL of the reaction solution A that contained the thus-prepared GDP-Rac complex, and equilibrated at 30° C. for 2 minutes. After equilibration, 50 μL of the GEF pretreated product prepared as described above was added and reacted at 30° C.
Changes in fluorescence intensity of Bodipy-FL-GTP in the reaction solutions were monitored using an EnSpire spectrofluorometer (Perkin Elmer) (excitation wavelength: 488 nm, fluorescence wavelength: 514 nm). The measured values were corrected so that the fluorescence intensity at the beginning of the reaction (0 sec) was 0. Then, an approximate curve (hyperbola) was obtained by plotting the calculated correction values on the y-axis and the time (t) on the x-axis using GraphPad Prism5 (GraphPad software), and the slope at t=0 to 10 seconds was defined as the initial velocity of the guanine nucleotide exchange reaction. The IC50 value was calculated taking the initial reaction velocity of the control, to which only a solvent (DMSO) was added, as 100%.
Based on the obtained results, columns A and B of FIG. 1, FIG. 2, FIG. 3-1, and FIG. 3-2 show the results evaluating the inhibitory effect on Rac activation by DOCK1 (DHR-2 domain) (IC50 value), and DOCK1-selective inhibitory effect (DOCK1/DOCK2 selectivity) of each test compound. The inhibitory effect on Rac activation by DOCK1 (DHR-2 domain) (IC50 value) was determined from the reaction inhibition curve plotted using values of Rac activation by the DOCK1 DHR-2 domain in the presence of various concentrations of the test compounds, taking the values of the control as 100%. […]

Row | DOCK1-inhibiting activity compared with TBOPP (DOCK1 (DHR-2 domain); GEF assay) | selective inhibitory activity against DOCK1 compared to TBOPP (DOCK1 (DHR-2 domain); GEF assay) | SMILES | percent cell invasion inhibition compared with TBOPP [1] | selective inhibitory activity against DOCK1 versus DOCK2 (DOCK1 (DHR-2 domain))
1 |  |  | COC(=O)c1cc(S(=O)(=O)N2CCCC2)cn1CC(O)c1ccc(-c2cccc(C(F)(F)F)c2)cc1 (stereo not shown) [HS-6, methyl 1-(2-hydroxy-2-(3′-(trifluoromethyl)-[1,1′-biphenyl]-4-yl)ethyl)-4-(pyrrolidin-1-yl-sulfonyl)-1H-pyrrole-2-carboxylate] | higher percent cell invasion inhibition than TBOPP | higher selective inhibitory activity against DOCK1 than against DOCK2
2 |  |  | CC(=O)c1cc(S(=O)(=O)N2CCCC2)cn1CC(=O)c1ccc(-c2cccc(C(F)(F)F)c2)cc1 [HS-16, 2-(2-acetyl-4-(pyrrolidin-1-yl-sulfonyl)-1H-pyrrol-1-yl)-1-(3′-(trifluoromethyl)-[1,1′-biphenyl]-4-yl)ethane-1-one] | higher percent cell invasion inhibition than TBOPP | higher selective inhibitory activity against DOCK1 than against DOCK2
3 |  |  | Cc1cc(-c2ccc(C(=O)Cn3cc(S(=O)(=O)N4CCCC4)ccc3=O)cc2)ccc1N(C)C [KS-16, 1-(2-(4′-(dimethylamino)-3′-methyl-[1,1′-biphenyl]-4-yl)-2-oxoethyl)-5-(pyrrolidin-1-yl-sulfonyl)pyridin-2(1H)-one] | higher percent cell invasion inhibition than TBOPP | 
4 |  |  | O=C(Cn1cc(S(=O)(=O)N2CCCC2)ccc1=O)c1ccc(-c2ccc3cccnc3c2)cc1 [KS-18, 1-(2-oxo-2-(4-(quinolin-7-yl)phenyl)ethyl)-5-(pyrrolidin-1-yl-sulfonyl)pyridin-2(1H)-one] | higher percent cell invasion inhibition than TBOPP | 
5 |  |  | O=C(Cn1cc(S(=O)(=O)N2CCCC2)ccc1=O)c1ccc(-c2cccc(SC(F)(F)F)c2)cc1 [KS-21, 1-(2-oxo-2-(3′-((trifluoromethyl)thio)-[1,1′-biphenyl]-4-yl)ethyl)-5-(pyrrolidin-1-yl-sulfonyl)pyridin-2(1H)-one] | higher percent cell invasion inhibition than TBOPP | 
6 |  |  | O=C(Cn1cc(S(=O)(=O)N2CCCC2)ccc1=O)c1ccc(-c2cccc(C(F)(F)F)n2)cc1 [KS-22, 1-(2-oxo-2-(4-(6-(trifluoromethyl)pyridin-2-yl)phenyl)ethyl)-5-(pyrrolidin-1-yl-sulfonyl)pyridin-2(1H)-one] | higher percent cell invasion inhibition than TBOPP | 
7 |  |  | O=C(Cn1cc(S(=O)(=O)N2CCCC2)ccc1=O)c1ccc(-c2ccc3ncccc3c2)cc1 [KS-23, 1-(2-oxo-2-(4-(quinolin-6-yl)phenyl)ethyl)-5-(pyrrolidin-1-yl-sulfonyl)pyridin-2(1H)-one] | higher percent cell invasion inhibition than TBOPP | 
8 | higher than those of TBOPP | higher than those of TBOPP | O=C(Cn1cc(S(=O)(=O)N2CCC(c3ccc(-c4cc(F)c(F)c(F)c4)cc3)CC2)ccc1=O)c1ccc(-c2cc(F)c(F)c(F)c2)cc1 [KS-59, 1-(2-oxo-2-(3′,4′,5′-trifluoro-[1,1′-biphenyl]-4-yl)ethyl)-5-((4-(3′,4′,5′-trifluoro-[1,1′-biphenyl]-4-yl)piperidin-1-yl)sulfonyl)pyridin-2(1H)-one] | higher than those of TBOPP | higher selective inhibitory activity against DOCK1 than against DOCK2
9 |  |  | Nc1cc(S(=O)(=O)N2CCCC2)cn(CC(=O)c2ccc(-c3cccc(C(F)(F)F)c3)cc2)c1=O [RT-13, 3-amino-1-(2-oxo-2-(3′-(trifluoromethyl)-[1,1′-biphenyl]-4-yl)ethyl)-5-(pyrrolidin-1-yl-sulfonyl)pyridin-2(1H)-one] | higher percent cell invasion inhibition than TBOPP | 
10 |  |  | O=C(Cn1cc(S(=O)(=O)N2CCCC2)cc1-c1ncco1)c1ccc(-c2cccc(C(F)(F)F)c2)cc1 [RT-58, 2-(2-(oxazol-2-yl)-4-(pyrrolidin-1-yl-sulfonyl)-1H-pyrrol-1-yl)-1-(3′-(trifluoromethyl)-[1,1′-biphenyl]-4-yl)ethan-1-one] | higher percent cell invasion inhibition than TBOPP | higher selective inhibitory activity against DOCK1 than against DOCK2

Source: US20220017486A1, “DOCK1-INHIBITING COMPOUND AND USE THEREOF” (KYUSHU UNIVERSITY, NATIONAL UNIVERSITY CORPORATION, priority 2018, published 2022)
